Reference: patent US8722580B2, “Agent for inhibiting cytokinin signaling” (Sumitomo Chemical Company, Limited, priority 2006, dated 2014)

How the values were obtained:
rice [1] = test: Root growth-promoting activity by rice seed treatment (Example 12); assay type: in vivo, Oriza sativa L. japonica; conditions: rice seeds treated with 10,000 ppm acetone solution; 4 days dark at 30° C. then 35 days greenhouse
Method: With respect to the chemical substance Ic3-1 and the chemical substance Ic7-1 (which inhibit intracellular signaling from a plant-derived cytokinin receptor of a cell) selected in Example 7, a main root-growth promoting activity induced by seed treatment was evaluated using rice (Oriza sativa L. japonica). The chemical substance was dissolved in acetone to prepare a 10,000 ppm solution. The acetone chemical substance solution (300 μl) thus prepared was put in an eppendorf tube. Then, 15 seeds were put in the eppendorf tube. The resulting mixture was mixed for about 30 seconds. The seeds thus chemical-treated were spread and dried on a filter paper.
About 820 ml of culture soil was placed in a plastic container (120 mm in length, 97 mm in height) with a hole in the bottom. The chemical-treated seeds were sowed in the plastic container (15 seeds per plastic container). The seeds were cultivated in a dark place at 30° C. for 4 days and then cultivated in a greenhouse for 35 days. Roots of the plant thus cultivated were removed and the soil adhered to the plant was washed away, followed by freeze-drying. Then, the weight of roots after freeze-drying was measured. A test was repeated 3 times for each treatment section, and an average was determined.

[2] = test system: hypocotyl of Arabidopsis thaliana; test: Plant differentiation-promoting activity, adventitious root formation from hypocotyl (Example 13); assay type: in vivo, Arabidopsis thaliana Columbia; conditions: agar medium with trans-zeatin 0.01 ppm
Method: With respect to the chemical substance Ic3-1 and the chemical substance Ic7-1 (which inhibit intracellular signaling from a plant-derived cytokinin receptor of a cell) selected in Example 7, a plant differentiation-promoting activity was evaluated by examining an adventitious root formation activity using an hypocotyl of Arabidopsis thaliana Columbia.
First, an agar medium for sowing Arabidopsis thaliana was prepared. The agar medium contains, as components per 1 liter of an aqueous solution, 1 parcel of mixed salts for Murashige-Scoog plant medium (Wako Pure Chemical Industries, Ltd.) for 1 liter, 10 g of sucrose, 10 ml of an aqueous 5% MES (2-(N-Morpholino)ethanesulfonic acid) solution adjusted to pH 5.7 with potassium hydroxide, 100 mg of inositol, 1 ml of vitamins stock solution (10 g of thiamine hydrochloride, 1 g of pyridoxine hydrochloride, and 1 g of nicotinic acid per 1 liter of an aqueous solution) and 8 g of agar. Then, the agar medium was subjected to autoclave at 120° C. for 20 minutes, dispensed to circular petri dishes, and then solidified.
Seeds of Arabidopsis thaliana (about 25 μl) were put in a 1.5 ml tube. Thereto was added 1 ml of a 10-fold diluted solution of a sodium hypochlorite solution (Nacalai Tesque) with sterilized distilled water. The seed were sterilized while stirring for about 1 minute with a tube mixer (TOMY, MT-360, MIXING SPEED10). […]

cytokinin receptor CRE1 [3] = target: T1, cytokinin receptor CRE1 (Arabidopsis thaliana, UniProt Q9C5U0, S567G/T1018A); test: Inhibition of intracellular signaling from plant-derived cytokinin receptor, growth of transformed yeast cell TM182-CRE1; assay type: cell-based; conditions: for inhibition at 2 ppm: read-out: Activity (%) of test substance for inhibiting intracellular signaling from plant-derived cytokinin receptor of cell; for Relative growth rate (%) in test section of test substance to control section, Transformed cell TM182-CRE1 / Activity (%) of test substance for inhibiting intracellular signaling from plant-derived cytokinin receptor of cell: trans-zeatin 0.6 ppm, chemical substance 2 ppm; for Relative growth rate (%) in test section of test substance to control section, Transformed cell TM182-CRE1: 30° C., 24 hours, turbidity OD 600; for Activity (%) of test substance for inhibiting intracellular signaling from plant-derived cytokinin receptor of cell: = 100 − relative growth rate of TM182-CRE1
T1 construct: expressed in transfected cells; host or cells: Saccharomyces cerevisiae TM182 (sln1Δ) transformed with p415CYC-CRE1
T1 sequence (Q9C5U0 24-1080 S567G/T1018A): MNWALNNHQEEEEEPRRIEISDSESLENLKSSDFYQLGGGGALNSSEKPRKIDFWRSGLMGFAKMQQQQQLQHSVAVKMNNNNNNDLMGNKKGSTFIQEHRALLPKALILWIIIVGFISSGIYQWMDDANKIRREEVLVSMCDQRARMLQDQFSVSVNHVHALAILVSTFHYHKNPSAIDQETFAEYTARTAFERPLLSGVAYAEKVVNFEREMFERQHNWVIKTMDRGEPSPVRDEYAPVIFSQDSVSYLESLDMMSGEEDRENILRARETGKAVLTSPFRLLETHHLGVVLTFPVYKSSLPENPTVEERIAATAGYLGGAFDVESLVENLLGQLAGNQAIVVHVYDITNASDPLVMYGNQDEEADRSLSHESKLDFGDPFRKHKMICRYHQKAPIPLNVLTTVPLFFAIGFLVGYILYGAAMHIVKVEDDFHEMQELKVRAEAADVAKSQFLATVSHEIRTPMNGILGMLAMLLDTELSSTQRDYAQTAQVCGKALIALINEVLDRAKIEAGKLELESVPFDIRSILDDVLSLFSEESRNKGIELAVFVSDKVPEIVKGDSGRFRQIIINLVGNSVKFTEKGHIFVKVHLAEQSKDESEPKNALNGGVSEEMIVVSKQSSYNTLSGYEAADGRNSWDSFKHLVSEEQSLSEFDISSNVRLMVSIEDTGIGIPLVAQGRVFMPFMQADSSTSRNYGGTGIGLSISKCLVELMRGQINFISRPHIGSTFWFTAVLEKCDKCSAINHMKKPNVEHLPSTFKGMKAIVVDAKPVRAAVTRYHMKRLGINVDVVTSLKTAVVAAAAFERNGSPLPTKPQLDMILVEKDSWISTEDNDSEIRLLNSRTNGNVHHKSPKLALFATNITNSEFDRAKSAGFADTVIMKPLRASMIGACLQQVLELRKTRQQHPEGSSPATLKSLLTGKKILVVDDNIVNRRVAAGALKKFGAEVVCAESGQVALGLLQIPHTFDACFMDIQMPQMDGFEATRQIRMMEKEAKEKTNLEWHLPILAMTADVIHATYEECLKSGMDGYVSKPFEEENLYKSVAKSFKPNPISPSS
How it was run: (§1)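 Relative growth % is derived from blank-corrected OD600 against DMSO wells after 24 h at 30° C, with inhibition given as 100 minus that value. Cells were set to OD600=0.1 with 0.6 ppm trans-zeatin and 2 ppm test substance: CRE1 strain in DOLU+Glu, p415CYC1 toxicity control in DOLU+Gal.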

[4] = test system: transformed cell TM182-p415CYC1; test: Control growth test with transformed yeast cell TM182-p415CYC1 (toxicity to yeast); assay type: cell-based; conditions: trans-zeatin 0.6 ppm; chemical substance 2 ppm; 30° C., 24 hours; turbidity OD 600
How it was run: as §1

rice [5] = test: Root growth-promoting activity using rice, seed growth pouch (Example 11); assay type: in vivo, Oriza sativa L. japonica; conditions: 25° C., 7 days
Method: With respect to the chemical substance Ic3-1 and the chemical substance Ic7-1 (which inhibit intracellular signaling from a plant-derived cytokinin receptor of a cell) selected in Example 7, a main root-growth promoting activity was evaluated using rice (Oriza sativa L. japonica). Aqueous solutions of the chemical substance having different concentrations (10 ppm, 25 ppm, each containing 0.1% DMSO) were prepared. A naper towel was impregnated with 17 ml of the chemical solution, wherein the heavy paper was placed in a seed growth pouch for observation of root growth (177 mm×163 mm, manufactured by Daiki Rika Kogyo Co., Ltd.), and 3 rice seeds were sowed on the paper towel. The pouch was put in a plastic container, and then sealed. After culture in the light at 25° C. for 7 days, the length of a main root was measured. An average of 3 repeats was determined and a root growth rate was determined by the following equation. Root growth rate (%)=(Average main root length in chemical substance-treated section)/(Average main root length in control section)×100−100

cytokinin receptor CRE1 [6] = target: T1, cytokinin receptor CRE1; assay type: binding; conditions: radiolabel 2IP 10 nM; test substance 10 μM
Method: As the cytokinin labeled with a radioisotope of hydrogen, tritium so as to become highly radioactive, [3H]N-6-(isopent-2-enyl)Adenine manufactured by Amersham Biosciences (hereinafter, referred to as radiolabel 2IP) was used.
First, 100 μg of the membrane protein fraction of the transformed cell TM182-p415CYC1, a radiolabel 2IP dilution at a predetermined concentration with a phosphate buffer and 1 μl of a test substance dilution at a predetermined concentration with DMSO were mixed in a phosphate buffer to prepare 100 μl of a reaction liquid. Next, the reaction liquid was allowed to stand in ice for 1 hour and then filtered with a glass filter GF/B (manufactured by Whatman) to collect a membrane protein fraction of the transformed cell TM182-p425GPD-CRE1. The glass filter was immersed in a liquid scintillation cocktail Ultima Gold (manufactured by PerkinElmer Co., Ltd.), and radioactivity was measured by a liquid scintillation counter. […] In order to eliminate influence of radioactivity due to nonspecific binding of the radiolabel 2IP, a value of radioactivity obtained in the test using the membrane protein fraction of the transformed cell TM182-p425GPD was subtracted from a value of radioactivity obtained in the test using the membrane protein fraction of the transformed cell TM182-p425GPD-CRE1.

Arabidopsis thaliana [7] = test: Root growth-promoting activity test (Example 22); assay type: in vivo; conditions: main root length vs control section, 22° C., 10 days
Method: Enshi standard medium having the following composition (see Table 18) was prepared. To cluster tubes was dispensed each 4 μl of a solution of a chemical substance in DMSO to a final concentration of 0.001 ppm to 10 ppm, and then, was dispensed each 600 μl of the sterilized Enshi standard medium. Then the resulting solution was well mixed. In each of the cluster tubes, 10-20 seeds of Arabidopsis thaliana were sown, and cultured at 22° C. for 10 days in the light. Then, the length of main roots (average main roots) generated from the seeds of Arabidopsis thaliana was measured. An average of eight repeats was determined, and a root growth rate was determined according to the following equation.
Root growth rate (%)=(Average main root length in chemical substance-treated section)/(Average main root length in control section)×100
Enshi standard medium determined having the following composition (Table 18) was prepared. A DMSO solution of a chemical substance was dispensed by 4 μl to cluster tubes to a final concentration of 0.001 ppm to 10 ppm and the sterilized Enshi standard medium was dispensed by 600 μl and then the resulting solution was well mixed. 10-20 seeds of A. thaliana per cluster tube were sown in the cluster tubes. After culture at 22° C. for 10 days in bright light, the length of main roots (average main roots) took from seeds of A. thaliana was measured. An average of eight repeats was determined and the root growth rate was determined.
Root growth rate (%)=(Average main root length of chemical substance-treated section)/(Average main root length of control section)×100

Arabidopsis thaliana [8] = test: Root growth-promoting activity test (Example 9); assay type: in vivo; conditions: main root length vs control section, 22° C., 10 days
How it was run: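 Compounds at 0.001–10 ppm final (added in DMSO) were mixed into Enshi medium, and Arabidopsis thaliana seeds were cultured in it for 10 days at 22° C under light. Root growth rate (%) is the treated mean main-root length divided by the control mean, from eight repeats.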

| SMILES | dry weight of roots per plant, % of the control section (rice [1]) | melting point | inhibition at 2 ppm (cytokinin receptor CRE1 [3]) | Relative growth rate (%) in test section of test substance to control section, Transformed cell TM182-CRE1 (cytokinin receptor CRE1 [3]) | Relative growth rate (%) in test section of test substance to control section, Transformed cell TM182-p415CYC1 [4] | main root growth increase relative to the control section (rice [5]; 10 ppm) | main root growth increase relative to the control section (rice [5]; 25 ppm) | radioactivity of bound radiolabel 2IP compared with DMSO only or abscisic acid (cytokinin receptor CRE1 [6]) | Activity (%) of test substance for inhibiting intracellular signaling from plant-derived cytokinin receptor of cell (cytokinin receptor CRE1 [3]) | further results |
| --- | --- | --- | --- | --- | --- | --- | --- | --- | --- | --- |
| O=C(O)Cc1c[nH]c2ccccc12 [IAA, reference compound] | 87% | – | – | – | – | – | – | – | – | – |
| OCCNc1nc(-c2ccccc2)c2cc(Cl)ccc2n1 [Ic3-1, 6-chloro-2-(2-hydroxyethylamino)-4-phenylquinazoline] | 119% | 137.9 °C | 94.6% | 5.4% | 114.1% | 17% | 20% | – | – | adventitious root formation from the hypocotyl portion ([2]; all test sections, final concentration 6 ppm, 2 ppm, 0.6 ppm or 0.2 ppm): adventitious roots were formed |
| OCCCCNc1nc(-c2ccccc2)c2cc(Cl)ccc2n1 [Ic3-4] | – | – | – | 1.4% | 106.4% | – | – | the radioactivity was decreased | 98.6% | Root growth-promoting activity (root growth rate) (Arabidopsis thaliana [7]; test final concentration 0.625 ppm (highest root growth rate)): 129.5%; Root growth-promoting activity (root growth rate) (Arabidopsis thaliana [8]; test final concentration 0.625 ppm (concentration with highest root growth rate)): 129.5% |
| CCOC(=O)CNc1nc(-c2ccccc2)c2cc(Cl)ccc2n1 [Ic3-33, 6-chloro-2-ethoxycarbonylmethylamino-4-phenylquinazoline] | – | 146.1 °C | 99% | 1.0% | 114.6% | – | – | – | – | Root growth-promoting activity (root growth rate) (Arabidopsis thaliana [7]; test final concentration 10 ppm (highest root growth rate)): 140.4%; activity at 5 ppm (Arabidopsis thaliana [8]; Arabidopsis thaliana, 240 h, test final concentration 5 ppm (concentration with highest root growth rate)): 124% |
| O=[N+]([O-])c1ccc2nc(NCCCO)nc(-c3ccccc3)c2c1 [Ic7-1] | 126% | – | – | 6.7% | 115.8% | 17% | 19% | – | 93.3% | adventitious root formation from the hypocotyl portion ([2]; test sections with final concentration 6 ppm or 2 ppm): adventitious roots were formed |
| C/C(=C\CNc1ncnc2nc[nH]c12)CO [trans-zeatin, reference compound] | – | – | – | – | – | – | – | the radioactivity was decreased | – | – |
